US6416753B1, “Method for modulating apoptosis” (The General Hospital Corporation, priority 1996, dated 2002)

Tests used:
HeLa cells [1] = assay: Mature IL-1β induced cell death of hydroxyurea (G1/S) arrested HeLa cells; type: cell-based; conditions: G1/S phase arrested HeLa cells
Protocol: (§1) HeLa, HeLa/CrmA, and L929 cells were seeded (2×10^4) in a 24 well plate and grown overnight in DMEM with 10% FCS. After 12 hours, the cells were washed 3 times with serum free DMEM, and hydroxyurea (HU) (2.5 mM) (Sigma, St. Louis, Mo.) was added to the HeLa and HeLa/CrmA cells Meikrantz, W., et al., Proc. Natl. Acad. Sci. U.S.A. 91: 3754 (1994)). After five hours, IL-1Ra (40 ng/ml) was added to the appropriate wells, and one hour later either TNF-α or mature IL1β were added. Twenty-four hours later, IL-1Ra was again added to the appropriate wells, and cell death was evaluated by trypan blue exclusion 60 hours after the initial addition of HU. Each condition was done three times in duplicate and 200 cells counted per well. For the photographs cells were grown on 2 well slides, and for nuclear morphology determination cells were fixed in 4% paraformaldehyde and incubated with Hoechst dye #33258 (10 μg/ml) (Sigma, St. Louis, Mo.).

HeLa and L929 = assay: Apoptosis of healthy proliferating cells exposed to mature IL-1β alone; type: cell-based; conditions: most healthy proliferating cells including HeLa and L929
COS cells = assay: Cell death of COS cells transfected with Ice-lacZ / Ich-1L-lacZ / proIL-1β, round blue cells scored; type: cell-based
Protocol: COS cells were plated (2×10^4) in 6-well plates in DMEM with 10% FCS. After 12 hours the wells were washed with serum and antibiotic free medium, and transfected using lipofectamine with either Ice-lacZ, Ich-1L-lacZ, βactin-lacZ(1 μg) or with proIL-1β (0.5 μg) for 3 hours. The sequence for Ich-1L is shown in FIG. 7 and the sequences of human ICE and pro- IL-1β are found respectively in Thornsberry et al., Nature 356:768-774 (1992) and in J. Immunol. 137:3644-3648, 1986. The medium was then removed and DMEM with 10% FCS added. IL-1Ra (40 ng/ml) was then added to the appropriate wells, and after one hour IL-1β (100 ng/ml) was added. X-gal reaction was performed 36 hours following the transfection and percentage of round blue (dead) cells were scored (Miura, M., et al., Cell 75: 653 (1993))

IL-1 receptor [2] = biological target: T1, IL-1 receptor (Homo sapiens, UniProt P14778); assay: IL-1 receptor binding assay (receptor down-regulation) in HeLa cells; type: cell-based; conditions: 100 ng/ml 125I IL-1β
T1 construct: endogenous in cells; host or cells: HeLa cells
T1 sequence (P14778 18-569): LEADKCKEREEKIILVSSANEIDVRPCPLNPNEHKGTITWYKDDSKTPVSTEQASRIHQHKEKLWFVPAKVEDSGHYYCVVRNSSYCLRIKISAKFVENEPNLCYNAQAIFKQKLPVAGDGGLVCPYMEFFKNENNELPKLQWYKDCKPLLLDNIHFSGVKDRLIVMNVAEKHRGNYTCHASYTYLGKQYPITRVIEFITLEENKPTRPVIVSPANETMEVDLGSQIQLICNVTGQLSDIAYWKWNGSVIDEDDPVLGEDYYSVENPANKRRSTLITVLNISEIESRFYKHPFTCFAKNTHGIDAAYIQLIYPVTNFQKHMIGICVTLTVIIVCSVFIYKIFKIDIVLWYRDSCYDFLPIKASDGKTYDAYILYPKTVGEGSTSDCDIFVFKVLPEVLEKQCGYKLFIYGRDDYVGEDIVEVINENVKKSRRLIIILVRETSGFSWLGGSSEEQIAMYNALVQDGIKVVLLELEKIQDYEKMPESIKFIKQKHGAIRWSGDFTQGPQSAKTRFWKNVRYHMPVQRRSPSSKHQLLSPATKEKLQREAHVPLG
Protocol: Hypoxia was produced as described in Example 1. IL-1β (100 ng/ml) was added as the cells were placed into the hypoxia chamber (90 min. are required to reach oxygen concentrations of 100 p.p.m.). IL-1 receptor binding assay: HeLa cells (10^6) were seeded in 10 cm dishes and grown overnight. Media was then exchanged containing 1 mg/ml of BSA and 100 ng/ml of ^125I IL-1β at 4° C. for 1 hr. After washing twice with cold medium, the cells were incubated with fresh warm medium at 37° C. for 0, 30, 60 and 120 minutes. Cells were then treated as above with glycine and radioactivity scored.

HeLa cells [3] = assay: Hypoxia-induced apoptosis of HeLa cells, viability by trypan blue exclusion; type: cell-based
Protocol: (§2) Hypoxia-induced apoptosis was studied as follows. HeLa and HeLa/CrmA cells (Miura, M., et al., Proc. Natl. Acad. Sci. USA. 92:8318-8322, 1995) were seeded in 35 mm dishes at a density of 6×10^4/dish in DMEM/10% FCS and grown overnight. The medium was then changed and factors were added (IL-1Ra, R & D, Minneapolis, Minn.), IL-1 antibody (Calbiochem, San Diego, Calif.), or IL-1 type-1 receptor antibody (R & D, Minneapolis, Minn.). Dishes were placed in an anaerobic chamber with a BBL GasPack Plus (Becton-Dickenson, USA), which reduced the oxygen concentration to less than 100 p.p.m. within 90 minutes. After 16 hours, cells were removed from the chamber, immediately trypsinized and scored for viability by trypan blue exclusion. Inhibition of ^125I IL-1β binding by IL-1Ra which was added for 2 hrs at 37° C. After addition of BSA (1 mg/ml) to the medium, cells were incubated at 4° C. for 15 minutes, and then ^125IL-1β (100 ng/ml) was added at 4° C. for 1 hr. For detection of ^125IL-1β binding, cells were treated with 50 mM glycine-HCl, pH 2.6 for 1 min, and quantitated by γ-counting.
Hypoxia was produced as described in Example 1. IL-1β (100 ng/ml) was added as the cells were placed into the hypoxia chamber (90 min. are required to reach oxygen concentrations of 100 p.p.m.). […] Cells were then treated as above with glycine and radioactivity scored.

IL-1 receptor [4] = biological target: T1, IL-1 receptor; assay: Inhibition of 125I IL-1β receptor binding in HeLa cells; conditions: IL-1Ra added for 2 hrs at 37° C.
Protocol: as §2

HeLa cells [5] = assay: TNF-α induced cell death of hydroxyurea (G1/S) arrested HeLa cells; type: cell-based; conditions: HU treated, G1/S phase arrested HeLa cells; IL-1Ra 40 ng/ml
Protocol: as §1

HeLa cells [6] = assay: HeLa cell death induced by TNF-α and cycloheximide; type: cell-based; conditions: data not shown
DRG neurons = assay: Trophic factor deprivation of primary DRG neurons, healthy neurons counted; type: cell-based, mouse; conditions: for Inhibition of trophic factor withdrawal-induced apoptosis: 100 ng/ml
Protocol: Neuronal trophic factor deprivation was assayed as follows. Post-natal day 1 mouse DRG neurons were isolated, dissociated with trypsin for one hour at 37° C., and plated in a 8 camber poly-lysine/laminin (Sigma, St. Louis, Mo.) coated slide. Wells were seeded at approximately 1000 neurons/well (8 wells/mouse). Neurons were cultured in Ham's nutrient F-12 supplemented with 20% FCS (Biowhittaker, Walkesvill, Md.), NGF (200 ng/ml) (Sigma, St. Louis, Mo.), BDNF (100 ng/ml) (Preprotech, Rocky Hill, N.J.), glutamine (2 mM), and penicillin/streptomycin. The medium was replaced daily with either trophic factor containing medium (TF(+))=20% FCS and NGF (200 ng/ml), or trophic factor deficient medium, TF(−)=serum and NGF-free medium in the presence of saturating concentration of mouse NGF monoclonal antibody (100 ng/ml) (Boehringer Mannheim, Indianapolis, Ind.), and IL-IRA (100 ng/ml unless otherwise indicated in the text). Healthy neurons were counted under a phase contrast microscope 24 and 48 hours following the media change.

L929 cells = assay: TNF-α induced cell death of L929 cells, trypan blue exclusion; type: cell-based; conditions: IL-1Ra 40 ng/ml
Protocol: as §1, with “After” for “HeLa, HeLa/CrmA, and L929 cells were seeded (2×10^4) in a 24 well plate and grown overnight in DMEM with 10% FCS. After”, “Louis, Mo.) was added to the HeLa and HeLa/CrmA cells Meikrantz, W., et al., Proc.” left out

cerebral infarct = conditions: rat model; Relton & Rothwell 1992; cited from earlier work
[7] = biological target: IL-1 type-1 receptor on HeLa cells (UniProt P14778); assay: cell-based or functional assay

With “IL-1β: mature 17.5 kD interleukin-1β, cytokine produced by ICE cleavage of prointerleukin-1β” the “Cell death induced by exogenous mature IL-1β” value (HeLa cells [1]; 100 ng/ml) was 83.7%, the “Induction of apoptosis of healthy proliferating cells” value (HeLa and L929) was “does not induce apoptosis” and the “Induction of apoptosis in COS cells by the exogenous cytokine alone” value (COS cells; COS cells without Ice/Ich-1L transfection) was “did not induce apoptosis”. The “Induction of cell death in Ice-lacZ or Ich-1L-lacZ transfected COS cells” value (COS cells; extracellular cytokine, 36 hours after transfection) was “efficiently induced cell death”, the “Down-regulation of the IL-1 receptor” value (IL-1 receptor [2]) was “significantly down-regulated” and the “Survival of HeLa cells preincubated with exogenous IL-1β under hypoxia” value (HeLa cells [3]; IL-1β 100 ng/ml added as cells were placed into the hypoxia chamber, control 10.1%) was 58.7%.

With “IL-1Ra: a naturally occurring cytokine which binds to the IL-1 receptor, blocking IL-1 mediated signal transduction” the “Blocking of 125I-IL-1β binding” value (IL-1 receptor [4]) was “blocks”, the “Inhibition of mature IL-1β induced cell death” value (HeLa cells [1]) was “inhibited” and the “Inhibition of TNF-α induced HeLa cell death” value (HeLa cells [5]) was 56.0%. For the same substance, the “Inhibition of death of COS cells expressing Ice-lacZ or Ich-1L-lacZ with proIL-1β, or with extracellular TNF-α or mature IL-1β” value (COS cells; IL-1Ra 40 ng/ml) was “significantly inhibited”, the “Protection from death induced by TNF-α and cycloheximide” value (HeLa cells [6]) was “protected” and the “Inhibition of neuronal apoptosis” value (DRG neurons; 40 ng/ml, 24 hours) was 43.5%. The “Inhibition of trophic factor withdrawal-induced apoptosis” value (DRG neurons; 24 hours) was 69.2%, the “Inhibition of trophic factor withdrawal-induced apoptosis” value (DRG neurons; 48 hours) was 37.8% and the “Protection from TNF-α induced death” value (L929 cells) was “up to 64.9%”. The “Inhibition of hypoxia-induced cell death” value (HeLa cells [3]; HeLa cells, 16 hours hypoxia) was “inhibited hypoxia-induced cell death” and the “Reduction of cerebral infarct size following ischemia” value (cerebral infarct) was 50%.

“mature IL-1β (from UniProt P01584 117-269) (ligand)” gave a cell death of G1/S phase arrested (HU treated) HeLa cells treated with exogenous mature IL-1β [7] of 83.7% and a survival of HeLa cells under hypoxia after preincubation with exogenous IL-1β (100 ng/ml) [7] of 58.7%.
